Experimental data reported in article PMC4774911, “Biochemical Screening of Five Protein Kinases from Plasmodium falciparum against 14,000 Cell-Active Compounds” (PLoS ONE, 2016).
Several values for one entry are separate records, joined by “and”; a condition that tells them apart may be missing. Equal values may be shown once.

What was measured:
Assay in all cases: biochemical
Set-up in all cases: endogenous in cells; host or cells: K562 cell extract; species or system K562 (extract); replicate k of n = 2 (each experiment ID is one independent experiment; two experiment IDs per compound)
Settings in all cases: read-out: KDapp
[1] = molecular target: T1, ADCK1 (Homo sapiens, UniProt Q86TW2)
T1 sequence (Q86TW2 1-530): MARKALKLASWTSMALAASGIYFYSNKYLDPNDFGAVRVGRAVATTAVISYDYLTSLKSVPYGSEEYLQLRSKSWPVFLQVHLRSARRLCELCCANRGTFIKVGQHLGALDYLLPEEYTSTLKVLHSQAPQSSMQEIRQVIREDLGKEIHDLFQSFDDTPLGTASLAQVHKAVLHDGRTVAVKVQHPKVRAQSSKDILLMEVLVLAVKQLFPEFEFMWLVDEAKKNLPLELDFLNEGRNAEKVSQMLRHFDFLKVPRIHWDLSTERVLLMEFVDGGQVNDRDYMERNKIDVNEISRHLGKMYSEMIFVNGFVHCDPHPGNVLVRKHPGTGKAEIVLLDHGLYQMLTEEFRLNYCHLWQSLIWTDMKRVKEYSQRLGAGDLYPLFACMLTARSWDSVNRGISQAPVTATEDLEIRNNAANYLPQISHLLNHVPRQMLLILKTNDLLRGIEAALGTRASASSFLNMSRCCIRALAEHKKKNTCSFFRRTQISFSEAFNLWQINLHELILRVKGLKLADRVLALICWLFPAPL

[2] = molecular target: GSK3A (Homo sapiens, UniProt P49840)
[3] = molecular target: T2, NEK1 (Homo sapiens, UniProt Q96PY6)
T2 sequence (Q96PY6 1-1258): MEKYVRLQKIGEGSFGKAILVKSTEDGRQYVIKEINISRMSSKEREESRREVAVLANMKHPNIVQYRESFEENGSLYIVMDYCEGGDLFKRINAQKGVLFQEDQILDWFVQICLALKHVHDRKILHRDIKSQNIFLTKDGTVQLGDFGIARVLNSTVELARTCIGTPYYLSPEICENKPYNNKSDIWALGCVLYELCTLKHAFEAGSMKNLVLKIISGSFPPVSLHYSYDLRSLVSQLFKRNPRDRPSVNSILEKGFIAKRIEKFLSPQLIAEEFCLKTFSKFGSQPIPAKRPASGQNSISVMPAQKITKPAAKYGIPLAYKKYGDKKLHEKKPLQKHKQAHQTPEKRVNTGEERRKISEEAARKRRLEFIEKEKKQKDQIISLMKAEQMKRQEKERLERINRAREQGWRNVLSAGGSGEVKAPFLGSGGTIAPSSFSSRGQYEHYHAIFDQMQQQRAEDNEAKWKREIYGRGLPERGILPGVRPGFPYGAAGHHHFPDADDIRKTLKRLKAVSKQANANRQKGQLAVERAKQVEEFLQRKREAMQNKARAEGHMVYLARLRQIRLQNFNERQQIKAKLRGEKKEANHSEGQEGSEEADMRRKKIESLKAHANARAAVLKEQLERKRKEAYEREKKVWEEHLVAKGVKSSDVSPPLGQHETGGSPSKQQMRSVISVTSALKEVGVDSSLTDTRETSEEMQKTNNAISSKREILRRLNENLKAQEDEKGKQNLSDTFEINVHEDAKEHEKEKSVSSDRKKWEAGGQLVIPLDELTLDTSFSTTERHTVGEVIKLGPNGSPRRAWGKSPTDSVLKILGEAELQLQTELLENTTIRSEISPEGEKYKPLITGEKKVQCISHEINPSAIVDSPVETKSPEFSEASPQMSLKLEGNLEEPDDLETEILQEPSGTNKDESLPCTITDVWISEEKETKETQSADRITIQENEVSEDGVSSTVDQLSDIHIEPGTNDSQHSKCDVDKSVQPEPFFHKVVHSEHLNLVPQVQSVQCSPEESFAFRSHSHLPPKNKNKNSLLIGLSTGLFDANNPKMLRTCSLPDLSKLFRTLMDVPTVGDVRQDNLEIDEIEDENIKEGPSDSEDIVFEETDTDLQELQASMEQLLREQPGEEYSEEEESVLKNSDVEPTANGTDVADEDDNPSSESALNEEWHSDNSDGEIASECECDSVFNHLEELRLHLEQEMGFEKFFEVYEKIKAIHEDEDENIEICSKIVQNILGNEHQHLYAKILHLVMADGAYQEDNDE

[4] = molecular target: PCTK2 (Homo sapiens, UniProt Q00537)
[5] = molecular target: CSNK1E (Homo sapiens, UniProt P49674)
[6] = molecular target: T3, MAP2K5 (Homo sapiens, UniProt Q13163)
T3 sequence (Q13163 1-448): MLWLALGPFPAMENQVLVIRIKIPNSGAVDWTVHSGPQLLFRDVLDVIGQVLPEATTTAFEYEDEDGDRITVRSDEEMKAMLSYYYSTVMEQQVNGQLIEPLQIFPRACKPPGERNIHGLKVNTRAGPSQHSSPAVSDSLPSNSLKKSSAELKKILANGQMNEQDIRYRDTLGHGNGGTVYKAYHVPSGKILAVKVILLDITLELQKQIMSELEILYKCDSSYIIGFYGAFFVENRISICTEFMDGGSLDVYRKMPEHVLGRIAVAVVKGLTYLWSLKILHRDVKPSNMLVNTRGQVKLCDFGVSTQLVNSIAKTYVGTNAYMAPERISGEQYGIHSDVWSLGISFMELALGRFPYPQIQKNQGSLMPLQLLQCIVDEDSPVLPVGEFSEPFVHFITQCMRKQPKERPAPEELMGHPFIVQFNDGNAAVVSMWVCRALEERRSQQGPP

Chain of PCTK2 (Q00537 whole entry): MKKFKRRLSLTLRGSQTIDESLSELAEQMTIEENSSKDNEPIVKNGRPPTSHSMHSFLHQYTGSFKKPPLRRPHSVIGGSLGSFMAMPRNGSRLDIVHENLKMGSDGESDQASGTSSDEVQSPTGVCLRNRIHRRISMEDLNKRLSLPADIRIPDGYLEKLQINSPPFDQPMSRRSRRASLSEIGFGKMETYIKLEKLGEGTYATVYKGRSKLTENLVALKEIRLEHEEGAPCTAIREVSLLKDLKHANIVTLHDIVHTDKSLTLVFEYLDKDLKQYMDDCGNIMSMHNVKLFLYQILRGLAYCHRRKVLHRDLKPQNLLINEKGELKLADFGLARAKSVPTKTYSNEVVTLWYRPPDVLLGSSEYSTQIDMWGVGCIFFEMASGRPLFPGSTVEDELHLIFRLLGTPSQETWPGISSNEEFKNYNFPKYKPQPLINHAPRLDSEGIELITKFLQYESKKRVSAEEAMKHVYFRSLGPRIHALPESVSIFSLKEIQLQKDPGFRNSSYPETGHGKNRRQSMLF
Chain of CSNK1E (P49674 whole entry): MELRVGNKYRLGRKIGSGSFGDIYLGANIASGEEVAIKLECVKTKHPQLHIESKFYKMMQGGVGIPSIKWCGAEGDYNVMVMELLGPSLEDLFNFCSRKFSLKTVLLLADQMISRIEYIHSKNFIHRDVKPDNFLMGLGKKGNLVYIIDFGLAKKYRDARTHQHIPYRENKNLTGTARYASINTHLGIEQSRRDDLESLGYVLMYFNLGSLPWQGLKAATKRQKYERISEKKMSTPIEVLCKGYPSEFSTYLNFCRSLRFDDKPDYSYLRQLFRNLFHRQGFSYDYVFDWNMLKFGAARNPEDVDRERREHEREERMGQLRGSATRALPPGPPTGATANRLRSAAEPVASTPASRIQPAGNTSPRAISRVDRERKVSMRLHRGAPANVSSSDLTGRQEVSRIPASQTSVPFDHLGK
Chain of GSK3A (P49840 whole entry): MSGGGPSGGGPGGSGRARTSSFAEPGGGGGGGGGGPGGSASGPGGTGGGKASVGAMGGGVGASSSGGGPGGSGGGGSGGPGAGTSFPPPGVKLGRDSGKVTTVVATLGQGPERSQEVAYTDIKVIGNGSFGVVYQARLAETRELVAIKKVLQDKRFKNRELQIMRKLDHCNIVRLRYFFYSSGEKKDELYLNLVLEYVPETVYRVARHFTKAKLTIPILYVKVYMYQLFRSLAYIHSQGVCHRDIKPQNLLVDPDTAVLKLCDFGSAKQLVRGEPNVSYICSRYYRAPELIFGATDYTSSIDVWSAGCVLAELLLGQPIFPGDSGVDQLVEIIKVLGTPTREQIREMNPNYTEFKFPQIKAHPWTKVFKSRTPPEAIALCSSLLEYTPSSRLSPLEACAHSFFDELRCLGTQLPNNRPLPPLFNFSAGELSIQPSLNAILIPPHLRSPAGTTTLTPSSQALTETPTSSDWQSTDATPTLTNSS

CN(C)CC(O)COc1ccc(Nc2ncc([N+](=O)[O-])c(Nc3ccccc3O)n2)cc1.O=C(O)C(F)(F)F (stereo not drawn) [TCMDC-141399]
Kd [1]: 1.18 µM
Kd [2]: 2.25 µM and 2.48 µM
Kd [3]: 4.54 µM
Kd [4]: 1.14 µM and 1.06 µM

Cl.NCC1(c2nc(-c3ccc(Cl)c(O)c3)c(-c3ccncc3)[nH]2)CCCCC1 [TCMDC-141154]
Kd [5]: 0.226 µM
Kd [6]: 0.479 µM

CN1CCN(c2ccc(Nc3ncc(C#N)c(Nc4ccccc4C(N)=O)n3)cc2)CC1.Cl [TCMDC-134116]
Kd [1]: 0.654 µM
Kd [5]: 1.1 µM and 2.81 µM
Kd [2]: 0.47 µM and 0.369 µM
Kd [6]: 0.218 µM and 0.283 µM
Kd [3]: 0.404 µM and 0.333 µM
Kd [4]: 0.0577 µM and 0.0835 µM
